# Test results reported in US11111240B2, “Sultam compound and application method thereof” (Chia Tai Tianqing Pharmaceutical Group Co., Ltd., priority 2016, dated 2021).
# Biological target: IDH1 (R132H) (Homo sapiens (Human), UniProt O75874, R132H)
# Assay: Enzyme assay, IDH1m inhibition (NADPH decrease, diaphorase/resazurin)
# Type: biochemical
# Details: 40 nM enzyme, 16 h pre-incubation at 23° C.
# Excerpt: Resazurin is a traditional redox dye, and after a redox reaction, it can be reduced from a blue resazurin without fluorescence to a pink fluorescent substance, resorufin, which can be measured and quantified with relative fluorescence unit (RFU) of fluorophotometer (Ex=530-570 nm, Em=590-620 nm). At present, resazurin is widely used for determining the viability of bacteria, cells, etc. and the enzyme activity detection of oxidoreductase. We detected the decrease of cofactor NADPH to determine the inhibitory activity of a compound against IDH1m and detected the generation of cofactor NADPH to determine the inhibitory activity of a compound against IDH WT. The compound was pre-incubated with IDH1m and NADPH, and then the reaction was initiated by adding α-KG and performed for certain time under a linear condition. Then, diaphorase (lipoamide dehydrogenase) and the corresponding substrate resazurin were added thereto for detection. Lipoamide dehydrogenase terminated the IDH1m reaction by decreasing the available cofactor NADPH, which oxidized NADPH to NADP, and reduced resazurin to high fluorescent resorufin. The amount of the remaining cofactor NADPH after a specific reaction time was quantified via an easily detectable fluorophore.
# The specific operation was as follows: 2.5 μl of the compound diluted in a 3-fold gradient was added to a 384-well plate, followed by adding 5 μl of the reaction buffer (20 mM Tris-HCl, pH 7.5; 150 mM NaCl; 10 mM MgCl2; 0.4 mg/mL BSA (Bovine Serum Albumin) and 2 mM DTT (dithiothreitol)) containing 40 nM IDH1 (R132H/R132C) and 20 μM NADPH. Then, the above test mixture was incubated at 23° C. for 16 hours, and then 2.5 μl of the reaction buffer containing 4 mM α-KG was added to initiate the reaction. After they were incubated for 60 minutes at room temperature, 5 μl of the termination mixture (0.4 U/ml diaphorase and 20 μM resazurin) formulated with the reaction buffer was added to convert resazurin to resorufin, so as to measure the amount of the remaining NADPH. After incubating at 23° C. for 10 minutes, fluorescence values were determined through Flexstation 3 at Ex535/Em595. The enzyme activity of each compound was respectively determined at 12 concentrations, and the data were calculated using the software GraFit6.0 (Erithacus Software) to obtain the IC50 value of each compound.
# Sequence of IDH1 (R132H) (O75874 whole entry R132H): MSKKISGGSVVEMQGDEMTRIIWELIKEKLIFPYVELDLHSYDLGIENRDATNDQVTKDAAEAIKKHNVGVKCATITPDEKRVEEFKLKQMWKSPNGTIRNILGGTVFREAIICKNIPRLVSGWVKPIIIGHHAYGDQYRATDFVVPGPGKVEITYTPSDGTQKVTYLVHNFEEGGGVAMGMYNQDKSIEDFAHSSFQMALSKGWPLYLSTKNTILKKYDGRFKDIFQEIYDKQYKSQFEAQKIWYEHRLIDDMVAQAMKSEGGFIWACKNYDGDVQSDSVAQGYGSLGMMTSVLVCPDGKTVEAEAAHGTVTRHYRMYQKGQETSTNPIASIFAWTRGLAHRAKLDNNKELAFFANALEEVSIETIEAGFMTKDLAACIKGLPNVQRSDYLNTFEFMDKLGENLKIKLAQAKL
row,IC50,Structure (SMILES)
1,< 10 µM,"N#Cc1ccnc(N2[C@H](C(=O)N(c3cncc(F)c3)[C@@H](C(=O)NC3CC(F)(F)C3)c3ccccc3Cl)CCS2(=O)=O)c1 [Example 1, (S)—N—((R)-1-(2-chlorophenyl)-2-((3,3-difluorocyclobutyl)amino)-2-oxoethyl)-2-(4-cyanopyridin-2-yl)-N-(5-fluoropyridin-3-yl)-isothiazolidine-3-carboxamide 1,1-dioxide]"
2,< 0.5 µM,"N#Cc1ccnc(N2[C@H](C(=O)N(c3cc(F)cc(F)c3)[C@@H](C(=O)NC3CC(F)(F)C3)c3ccccc3Cl)CCS2(=O)=O)c1 [Example 3, (S)—N—((R)-1-(2-chlorophenyl)-2-((3,3-difluorocyclobutyl)amino)-2-oxoethyl)-2-(4-cyanopyridin-2-yl)-N-(3,5-difluorophenyl)-isothiazolidine-3-carboxamide 1,1-dioxide]"
3,< 0.02 µM,"N#Cc1ccnc(N2[C@H](C(=O)N(c3cc(F)cc(F)c3)[C@H](C(=O)NC3CC(F)(F)C3)c3ccccc3Cl)CCS2(=O)=O)c1 [Example 4, (S)—N—((S)-1-(2-chlorophenyl)-2-((3,3-difluorocyclobutyl)amino)-2-oxoethyl)-2-(4-cyanopyridin-2-yl)-N-(3,5-difluorophenyl)-isothiazolidine-3-carboxamide 1,1-dioxide]"
4,< 1 µM,"N#Cc1ccnc(N2[C@H](C(=O)N(c3cccc(C(F)(F)F)c3)[C@@H](C(=O)NC3CC(F)(F)C3)c3ccccc3Cl)CCS2(=O)=O)c1 [Example 5, (S)—N—((R)-1-(2-chlorophenyl)-2-((3,3-difluorocyclobutyl)amino)-2-oxoethyl)-2-(4-cyanopyridin-2-yl)-N-(3-trifluoromethylphenyl)-isothiazolidine-3-carboxamide 1,1-dioxide]"
5,< 0.02 µM,"N#Cc1ccnc(N2[C@H](C(=O)N(c3cccc(C(F)(F)F)c3)[C@H](C(=O)NC3CC(F)(F)C3)c3ccccc3Cl)CCS2(=O)=O)c1 [Example 6, (S)—N—((S)-1-(2-chlorophenyl)-2-((3,3-difluorocyclobutyl)amino)-2-oxoethyl)-2-(4-cyanopyridin-2-yl)-N-(3-trifluoromethylphenyl)-isothiazolidine-3-carboxamide 1,1-dioxide]"
6,< 0.5 µM,"N#Cc1cc(F)cc(N(C(=O)[C@@H]2CCS(=O)(=O)N2c2cc(C#N)ccn2)[C@@H](C(=O)NC2CC(F)(F)C2)c2ccccc2Cl)c1 [Example 7, (S)—N—((R)-1-(2-chlorophenyl)-2-((3,3-difluorocyclobutyl)amino)-2-oxoethyl)-2-(4-cyanopyridin-2-yl)-N-(3-cyano-5-fluorophenyl)-isothiazolidine-3-carboxamide 1,1-dioxide]"
7,< 0.02 µM,"N#Cc1cc(F)cc(N(C(=O)[C@@H]2CCS(=O)(=O)N2c2cc(C#N)ccn2)[C@H](C(=O)NC2CC(F)(F)C2)c2ccccc2Cl)c1 [Example 8, (S)—N—((S)-1-(2-chlorophenyl)-2-((3,3-difluorocyclobutyl)amino)-2-oxoethyl)-2-(4-cyanopyridin-2-yl)-N-(3-cyano-5-fluorophenyl)-isothiazolidine-3-carboxamide 1,1-dioxide]"
8,< 1 µM,"N#Cc1ccnc(N2[C@H](C(=O)N(c3ccc(F)c(F)c3)[C@@H](C(=O)NC3CC(F)(F)C3)c3ccccc3Cl)CCS2(=O)=O)c1 [Example 9, (S)—N—((R)-1-(2-chlorophenyl)-2-((3,3-difluorocyclobutyl)amino)-2-oxoethyl)-2-(4-cyanopyridin-2-yl)-N-(3,4-difluorophenyl)-isothiazolidine-3-carboxamide 1,1-dioxide]"
9,< 0.02 µM,"N#Cc1ccnc(N2[C@H](C(=O)N(c3ccc(F)c(F)c3)[C@H](C(=O)NC3CC(F)(F)C3)c3ccccc3Cl)CCS2(=O)=O)c1 [Example 10, (S)—N—((S)-1-(2-chlorophenyl)-2-((3,3-difluorocyclobutyl)amino)-2-oxoethyl)-2-(4-cyanopyridin-2-yl)-N-(3,4-difluorophenyl)-isothiazolidine-3-carboxamide 1,1-dioxide]"
